pEC50: −log10 of the molar value.
Key:
[1] = Compound cytotoxicity, XTT-based colorimetric assay; type: cell-based; details: human, uninfected MT2 cells, day 4, XTT
Outline: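 Run under the antiviral-assay protocol but without virus. Viability was read on day 4 and CC50 values were derived from the readout.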

[2] = test system: recombinant NL4-3 virus (nef section replaced with Renilla luciferase gene) in MT-2 cells; assay: HIV cell culture assay (antiviral activity, luciferase readout); type: cell-based; details: Renilla, NL43, MT-2 cells infected for 4-5 days with recombinant NL4-3 Renilla luciferase virus, serial dilutions of compound
Outline: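 Test compound in serial dilution was present while MT-2 cells were infected for 4–5 days with recombinant NL4-3 virus made in 293T cells. Antiviral activity was quantified as Renilla luciferase activity, read with a live-cell substrate. EC50 came from the median-effect equation.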

Compound | CC50 at 4 day [1] [nM] | pEC50 [2]
Cc1ccccc1-c1ccc2c(=O)n(-c3ccc(S(=O)(=O)N4CCOCC4)cc3)c([C@H](Cc3cc(F)cc(F)c3)NC(=O)Cn3ccc(C4CC4)n3)nc2c1 [Example 143, (S)-2-(3-cyclopropyl-1H-pyrazol-1-yl)-N-(2-(3,5-difluorophenyl)-1-(3-(4-(morpholinosulfonyl)phenyl)-4-oxo-7-(o-tolyl)-3,4-dihydroquinazolin-2-yl)ethyl)acetamide] | > 1000 | 7.38
O=C(Cn1ccc(C2CC2)n1)N[C@@H](Cc1cc(F)cc(F)c1)c1nc2cc(-c3ccccc3)ccc2c(=O)n1-c1ccc(S(=O)(=O)N2CCOCC2)cc1 [Example 144, (S)-2-(3-cyclopropyl-1H-pyrazol-1-yl)-N-(2-(3,5-difluorophenyl)-1-(3-(4-(morpholinosulfonyl)phenyl)-4-oxo-7-phenyl-3,4-dihydroquinazolin-2-yl)ethyl)acetamide] | > 500 | 7.80
O=C(Cn1ccc(C2CC2)n1)N[C@@H](Cc1cc(F)cc(F)c1)c1nc2cc(-c3ccccc3Cl)ccc2c(=O)n1-c1ccc(S(=O)(=O)N2CCOCC2)cc1 [Example 145, (S)-N-(1-(7-(2-chlorophenyl)-3-(4-(morpholinosulfonyl)phenyl)-4-oxo-3,4-dihydroquinazolin-2-yl)-2-(3,5-difluorophenyl)ethyl)-2-(3-cyclopropyl-1H-pyrazol-1-yl)acetamide] | > 500 | 7.80
O=C(Cn1ccc(C2CC2)n1)N[C@@H](Cc1cc(F)cc(F)c1)c1nc2cc(-c3ccccc3-c3ccccc3)ccc2c(=O)n1-c1ccc(S(=O)(=O)N2CCOCC2)cc1 [Example 146, (S)-N-(1-(7-([1,1′-biphenyl]-2-yl)-3-(4-(morpholinosulfonyl)phenyl)-4-oxo-3,4-dihydroquinazolin-2-yl)-2-(3,5-difluorophenyl)ethyl)-2-(3-cyclopropyl-1H-pyrazol-1-yl)acetamide] | > 500 | 7.16
O=C(Cn1ccc(C2CC2)n1)N[C@@H](Cc1cc(F)cc(F)c1)c1nc2cc(-c3cccc(-c4ccccc4)c3)ccc2c(=O)n1-c1ccc(S(=O)(=O)N2CCOCC2)cc1 [Example 147, (S)-N-(1-(7-([1,1′-biphenyl]-3-yl)-3-(4-(morpholinosulfonyl)phenyl)-4-oxo-3,4-dihydroquinazolin-2-yl)-2-(3,5-difluorophenyl)ethyl)-2-(3-cyclopropyl-1H-pyrazol-1-yl)acetamide] | > 1000 | 6.92
O=C(Cn1ccc(C2CC2)n1)N[C@@H](Cc1cc(F)cc(F)c1)c1nc2cc(-c3ccc(-c4ccccc4)cc3)ccc2c(=O)n1-c1ccc(S(=O)(=O)N2CCOCC2)cc1 [Example 148, (S)-N-(1-(7-([1,1′-biphenyl]-4-yl)-3-(4-(morpholinosulfonyl)phenyl)-4-oxo-3,4-dihydroquinazolin-2-yl)-2-(3,5-difluorophenyl)ethyl)-2-(3-cyclopropyl-1H-pyrazol-1-yl)acetamide] | > 500 | 7.15
O=C(Cn1nc(C(F)F)c2c1C(F)(F)[C@@H]1C[C@H]21)N[C@@H](Cc1cc(F)cc(F)c1)c1nc2cc(-c3cccc(F)c3F)ccc2c(=O)n1-c1ccc(S(=O)(=O)N2CCOCC2)cc1 [Example 149, 2-((3bS,4aR)-3-(difluoromethyl)-5,5-difluoro-3b,4,4a,5-tetrahydro-1H-cyclopropa[3,4]cyclopenta[1,2-c]pyrazol-1-yl)-N-((S)-2-(3,5-difluorophenyl)-1-(7-(2,3-difluorophenyl)-3-(4-(morpholinosulfonyl)phenyl)-4-oxo-3,4-dihydroquinazolin-2-yl)ethyl)acetamide] | > 1000 | 8.09
Cc1cc(F)ccc1-c1ccc2c(=O)n(-c3ccc(S(=O)(=O)N4CCOCC4)cc3)c([C@H](Cc3cc(F)cc(F)c3)NC(=O)Cn3nc(C(F)F)c4c3C(F)(F)[C@@H]3C[C@H]43)nc2c1 [Example 150, 2-((3bS,4aR)-3-(difluoromethyl)-5,5-difluoro-3b,4,4a,5-tetrahydro-1H-cyclopropa[3,4]cyclopenta[1,2-c]pyrazol-1-yl)-N-((S)-2-(3,5-difluorophenyl)-1-(7-(4-fluoro-2-methylphenyl)-3-(4-(morpholinosulfonyl)phenyl)-4-oxo-3,4-dihydroquinazolin-2-yl)ethyl)acetamide] | > 500 | 7.96
Cn1nc(NS(C)(=O)=O)c2c(Cl)ccc(-n3c([C@H](Cc4cc(F)cc(F)c4)NC(=O)Cn4nc(C(F)F)cc4C(F)F)nc4cc(-c5ccccc5F)ccc4c3=O)c21 [Example 154, (S)-2-(3,5-bis(difluoromethyl)-1H-pyrazol-1-yl)-N-(1-(3-(4-chloro-1-methyl-3-(methylsulfonamido)-1H-indazol-7-yl)-7-(2-fluorophenyl)-4-oxo-3,4-dihydroquinazolin-2-yl)-2-(3,5-difluorophenyl)ethyl)acetamide] | > 1000 | 8.32
CC(C)n1ccc(CC(=O)N[C@@H](Cc2cc(F)cc(F)c2)c2nc3cc(-c4ccccc4F)ccc3c(=O)n2-c2ccc(Cl)c3c(NS(C)(=O)=O)nn(C)c23)n1 [Example 155, (S)-N-(1-(3-(4-chloro-1-methyl-3-(methylsulfonamido)-1H-indazol-7-yl)-7-(2-fluorophenyl)-4-oxo-3,4-dihydroquinazolin-2-yl)-2-(3,5-difluorophenyl)ethyl)-2-(1-isopropyl-1H-pyrazol-3-yl)acetamide] | > 1000 | 9.12
COc1ccc(-c2ccc3c(=O)n(-c4ccc(Cl)c5c(NS(C)(=O)=O)nn(C)c45)c([C@H](Cc4cc(F)cc(F)c4)NC(=O)Cn4nc(C(F)F)c5c4C(F)(F)[C@@H]4C[C@H]54)nc3c2)cc1 [Example 156, N-((S)-1-(3-(4-chloro-1-methyl-3-(methylsulfonamido)-1H-indazol-7-yl)-7-(4-methoxyphenyl)-4-oxo-3,4-dihydroquinazolin-2-yl)-2-(3,5-difluorophenyl)ethyl)-2-((3bS,4aR)-3-(difluoromethyl)-5,5-difluoro-3b,4,4a,5-tetrahydro-1H-cyclopropa[3,4]cyclopenta[1,2-c]pyrazol-1-yl)acetamide] | > 500 | 9.10
Cc1ncc(-c2ccc3c(=O)n(-c4ccc(Cl)c5c(NS(=O)(=O)C6CC6)nn(CC(F)F)c45)c([C@H](Cc4cc(F)cc(F)c4)NC(=O)Cn4nc(C(F)F)c5c4C(F)(F)[C@@H]4C[C@H]54)nc3c2)cn1 [Example 157, N-((S)-1-(3-(4-chloro-3-(cyclopropanesulfonamido)-1-(2,2-difluoroethyl)-1H-indazol-7-yl)-7-(2-methylpyrimidin-5-yl)-4-oxo-3,4-dihydroquinazolin-2-yl)-2-(3,5-difluorophenyl)ethyl)-2-((3bS,4aR)-3-(difluoromethyl)-5,5-difluoro-3b,4,4a,5-tetrahydro-1H-cyclopropa[3,4]cyclopenta[1,2-c]pyrazol-1-yl)acetamide] | > 500 | 10.22
